Bridge positions count the residues as written; N and C are the ends. Ends that are not written are not given here.
Assays:
IL-2/15Rβγc receptor = target: T1, IL-2/15Rβγc receptor (Homo sapiens, UniProt P31785); test: IL-15-induced STAT activation in TF-1 cells expressing IL-2/15Rβ; format: cell-based; conditions: IL-15 at ~EC75; up to 10 μM MDK1472 or 5 μM MDK-703
T1 construct: pcDNA3.1 expression vector encoding full-length IL-2Rβ, IL-7Rα, IL-9Rα, or IL-21Rα; TF-1 cells naturally express γc and IL-4Rα; expressed in transfected cells
T1 sequence (P31785 23-369): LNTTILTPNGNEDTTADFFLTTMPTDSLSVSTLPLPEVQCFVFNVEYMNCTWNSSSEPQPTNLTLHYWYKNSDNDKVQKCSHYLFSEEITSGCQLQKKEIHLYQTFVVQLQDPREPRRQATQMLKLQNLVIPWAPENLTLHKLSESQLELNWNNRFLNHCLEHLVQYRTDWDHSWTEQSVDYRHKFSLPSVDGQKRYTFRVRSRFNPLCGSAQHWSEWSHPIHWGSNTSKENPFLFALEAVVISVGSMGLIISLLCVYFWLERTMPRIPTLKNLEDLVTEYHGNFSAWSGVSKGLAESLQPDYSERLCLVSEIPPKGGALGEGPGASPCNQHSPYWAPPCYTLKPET
Description: There is no detectable effect of the novel agonists on the activation of any of the other receptors of the γc family.
Cells were deprived of growth factors by overnight incubation at 5×10^5 cells/mL in starvation medium (RPMI 1640 + 4.5 g/L glucose + 0.2% FBS + 2 mM L-glutamine + 1 mM NaPyr + 10 mM HEPES + 0.5x penicillin-streptomycin with no cytokine supplement) in T75 flasks. For assays, cells were plated in 96-well V-bottom plates at 2×10^5 cells/well. Three-fold serial dilutions in starvation medium of the test compounds or cytokine were added to the cells and incubated for 30 min at 37°C. Following incubation, cell extracts were prepared by adding a mixture of 10x Cell Lysis Buffer (Cell Signaling Technology Cat# 9803) and 100x HALT Phosphatase and Protease Inhibitor Cocktail (Thermo Fisher Cat# 78442) directly to the wells. The plates were agitated at 25°C for 5 min to prepare cell extracts for immediate use or to be stored at -80°C until assay. […]
TF-1-derived lines separately expressing each gamma common family private receptor were starved overnight at 5x10^5 cells/mL. The following day, the cells were counted and plated at 2x10^6 cells/well in 96-well plates. […] Cell extracts were prepared and analyzed for pSTAT3, pSTAT5, or pSTAT6 accumulation with Pathscan pSTAT ELISA kits as described above.

IL-7R = target: T2, IL-7R (Homo sapiens, UniProt P16871+P31785); test: STAT5 phosphorylation in TF1-7Rα cells; format: cell-based
T2 construct: constructed to express full-length human IL-7Rα in TF-1 cells; TF-1 cells, which naturally express γc, but not IL-7Rα; expressed in transfected cells
T2 sequence (P16871 21-459): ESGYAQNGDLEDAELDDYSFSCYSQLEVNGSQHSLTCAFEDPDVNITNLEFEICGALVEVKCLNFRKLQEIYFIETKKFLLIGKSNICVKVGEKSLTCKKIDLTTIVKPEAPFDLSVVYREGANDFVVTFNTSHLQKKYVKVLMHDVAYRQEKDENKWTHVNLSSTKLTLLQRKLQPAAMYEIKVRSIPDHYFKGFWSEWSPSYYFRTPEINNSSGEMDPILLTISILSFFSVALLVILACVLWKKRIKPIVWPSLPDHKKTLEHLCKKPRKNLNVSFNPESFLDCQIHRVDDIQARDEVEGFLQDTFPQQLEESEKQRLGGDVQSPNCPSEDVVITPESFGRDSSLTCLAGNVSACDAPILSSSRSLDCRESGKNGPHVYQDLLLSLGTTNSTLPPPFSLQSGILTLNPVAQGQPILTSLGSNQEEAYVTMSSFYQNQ
T2 sequence (P31785 23-369): T1 sequence (P31785 23-369)
Description: The synthetic peptide MDK1472 was designed to bind simultaneously to IL-7Rα and γc subunits and was tested for its ability to induce phosphorylation of STAT5, the primary IL-7R signaling pathway.
Reactions were stopped and cell lysates prepared for pSTAT5 analysis.
Cells were deprived of growth factors by overnight incubation at 5×10^5 cells/mL in starvation medium (RPMI 1640 + 4.5 g/L glucose + 0.2% FBS + 2 mM L-glutamine + 1 mM NaPyr + 10 mM HEPES + 0.5x penicillin-streptomycin with no cytokine supplement) in T75 flasks. For assays, cells were plated in 96-well V-bottom plates at 2×10^5 cells/well. Three-fold serial dilutions in starvation medium of the test compounds or cytokine were added to the cells and incubated for 30 min at 37°C. Following incubation, cell extracts were prepared by adding a mixture of 10x Cell Lysis Buffer (Cell Signaling Technology Cat# 9803) and 100x HALT Phosphatase and Protease Inhibitor Cocktail (Thermo Fisher Cat# 78442) directly to the wells. The plates were agitated at 25°C for 5 min to prepare cell extracts for immediate use or to be stored at -80°C until assay. Detection of pSTAT5 was performed using a PathScan® Phospho-Stat5 (pTyr694) Sandwich ELISA Kit (Cell Signaling Technology Cat# 7113). Detection of pSTAT6 was performed using a PathScan® Phospho-Stat6 (pTyr641) Sandwich ELISA Kit (Cell Signaling Technology Cat# 7275). Detection of pSTAT3 was performed using a PathScan® Phospho-Stat3 (pTyr705) Sandwich ELISA Kit (Cell Signaling Technology Cat# 7300). Cell lysates were added to pre-coated ELISA wells and incubated at 4°C overnight. Primary and secondary antibody incubations and wash steps were performed according to the protocols supplied by the manufacturer. Assays were developed using TMB substrate (Surmodics Cat# TMBW-1000-01) for 5–10 min at 25°C and the reaction was stopped using STOP solution (Surmodics Cat# LSTP-1000-01).

cynomolgus monkey PBMCs = test: pSTAT5 flow cytometry in cynomolgus PBMC subsets; format: cell-based, cynomolgus macaque; conditions: rested cynomolgus PBMCs
Excerpt: (§1) Frozen PBMCs from 5 healthy human donors (A, B) and cynomolgus monkey (C) were rested (A, C) or activated with anti-CD3/CD28 (B). Cells were stained for viability, followed by cell surface antibody staining on ice. […] After washing, cells were fixed, permeabilized, stained with anti-pSTAT5 antibody, and analyzed immediately by flow cytometry. The mean fluorescence intensity (MFI) of pSTAT5 detection was shown as mean ± SEM. […] Flow cytometry gating data shown in S2 Fig.
(§2) To detect phopho-STAT5 in immune subsets of PBMCs by flow cytometry, frozen human and cynomolgus macaques PBMCs (Stemcell Technologies, Cat# 70025.2 and iQ Biosciences, Cat# IQB-MnPB102, respectively) from 5 different healthy donors were thawed and rested overnight in T-cell media (CTS™ OpTmizer™ T-Cell Expansion SFM, ThermoFisher Scientific Cat# A1048501) at 37°C. Cells were stained with a viability dye for 30 min at 37°C followed by surface marker antibodies for 30 min on ice (S3 Table), then treated with serially diluted test compounds in the medium for 30 min. […] Antibody-stained cells were analyzed immediately by flow cytometry using the Novocyte Advanteon instrument (Agilent), and the data were analyzed using FlowJo software. Fluorescence minus one (FMO) controls were used to draw gates. […]

human PBMCs = test: pSTAT5 flow cytometry in human PBMC subsets; format: cell-based
Excerpt: as §1, §2

Row | Substance | inhibition of IL-15 activation (IL-2/15Rβγc receptor) | EC50 (IL-7R; Fig 4A dose response, 30 min at 37°C, pSTAT5 ELISA) | efficacy (Emax) of STAT5 phosphorylation relative to IL-7 (IL-7R; TF1-7Rα cells, Fig 3) | dependence of agonist activity on IL-7Rα expression (IL-7R; TF-1 parental (γc+) versus TF1-7Rα cells) | efficacy in cynomolgus lymphocyte subtypes (cynomolgus monkey PBMCs) | pSTAT5 response of NK cells (human PBMCs)
1 | Ac-GWGIPWCTLDPGSLQCAWLGKHGGGGSGGVVCQDWEGVELCWQGG (disulfide 7-16, 32-41) [MDK1472] | neither MDK1472 nor MDK-703 exhibit inhibition | 18 nM | full efficacy | completely dependent on IL-7Rα expression |  | 
2 | IL-7: human IL-7 cytokine (Peprotech) |  |  |  |  | equivalent efficacy | no pSTAT5 response

Reference: publication PMC10597491 (PLOS ONE, 2023)
